From ChEMBL document CHEMBL1201862, “PubChem BioAssay data set” (2004)
Calls of active or inactive are those of the source.

Key:
[1] = molecular target: Tyrosyl-DNA phosphodiesterase 2 (Homo sapiens, UniProt O95551); experiment: human TDP2 enzyme inhibitors, dose response, biochemical, epi absorbance, IC50 (AID 743297)
[2] = inhibitors of intracellular T. cruzi replication, confirmation, NIH3T3 host cells, beta-gal luminescence (AID 2044); format: functional, cell-based;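 note: intracellular parasites grown in NIH/3T3 mouse fibroblasts as host cells; luminescent beta-galactosidase reporter signal from transgenic T. cruzi replicating inside host cells; inhibitors lower the luminescence signal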
Exodeoxyribonuclease V = molecular target: T1, Exodeoxyribonuclease V (Escherichia coli (strain K12), UniProt P04993+P07648+P08394); experiment: E. coli RecBCD inhibitors, dose response, counter-screen for AddAB inhibitor project, absorbance, V66 E. coli, mutant T4 phage (AID 492957); format: functional, cell-based, Escherichia coli str. K-12 substr. MG1655
T1 sequence (P04993 whole entry): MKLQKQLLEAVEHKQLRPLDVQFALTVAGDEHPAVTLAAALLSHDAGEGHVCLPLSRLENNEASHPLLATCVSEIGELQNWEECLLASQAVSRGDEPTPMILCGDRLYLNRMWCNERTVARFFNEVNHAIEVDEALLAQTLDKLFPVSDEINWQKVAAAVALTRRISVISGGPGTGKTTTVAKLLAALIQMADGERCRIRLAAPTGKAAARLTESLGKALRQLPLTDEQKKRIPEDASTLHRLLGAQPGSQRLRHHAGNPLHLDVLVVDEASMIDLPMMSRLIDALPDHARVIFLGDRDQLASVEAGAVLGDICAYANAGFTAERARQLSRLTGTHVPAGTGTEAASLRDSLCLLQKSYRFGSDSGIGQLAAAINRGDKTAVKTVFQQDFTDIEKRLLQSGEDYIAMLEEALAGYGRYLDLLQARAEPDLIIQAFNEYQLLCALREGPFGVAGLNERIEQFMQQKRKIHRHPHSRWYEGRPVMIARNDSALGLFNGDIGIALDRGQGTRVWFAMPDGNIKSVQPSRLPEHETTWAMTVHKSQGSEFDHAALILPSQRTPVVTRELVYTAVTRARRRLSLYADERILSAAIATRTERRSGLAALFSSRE
T1 sequence (P07648 whole entry): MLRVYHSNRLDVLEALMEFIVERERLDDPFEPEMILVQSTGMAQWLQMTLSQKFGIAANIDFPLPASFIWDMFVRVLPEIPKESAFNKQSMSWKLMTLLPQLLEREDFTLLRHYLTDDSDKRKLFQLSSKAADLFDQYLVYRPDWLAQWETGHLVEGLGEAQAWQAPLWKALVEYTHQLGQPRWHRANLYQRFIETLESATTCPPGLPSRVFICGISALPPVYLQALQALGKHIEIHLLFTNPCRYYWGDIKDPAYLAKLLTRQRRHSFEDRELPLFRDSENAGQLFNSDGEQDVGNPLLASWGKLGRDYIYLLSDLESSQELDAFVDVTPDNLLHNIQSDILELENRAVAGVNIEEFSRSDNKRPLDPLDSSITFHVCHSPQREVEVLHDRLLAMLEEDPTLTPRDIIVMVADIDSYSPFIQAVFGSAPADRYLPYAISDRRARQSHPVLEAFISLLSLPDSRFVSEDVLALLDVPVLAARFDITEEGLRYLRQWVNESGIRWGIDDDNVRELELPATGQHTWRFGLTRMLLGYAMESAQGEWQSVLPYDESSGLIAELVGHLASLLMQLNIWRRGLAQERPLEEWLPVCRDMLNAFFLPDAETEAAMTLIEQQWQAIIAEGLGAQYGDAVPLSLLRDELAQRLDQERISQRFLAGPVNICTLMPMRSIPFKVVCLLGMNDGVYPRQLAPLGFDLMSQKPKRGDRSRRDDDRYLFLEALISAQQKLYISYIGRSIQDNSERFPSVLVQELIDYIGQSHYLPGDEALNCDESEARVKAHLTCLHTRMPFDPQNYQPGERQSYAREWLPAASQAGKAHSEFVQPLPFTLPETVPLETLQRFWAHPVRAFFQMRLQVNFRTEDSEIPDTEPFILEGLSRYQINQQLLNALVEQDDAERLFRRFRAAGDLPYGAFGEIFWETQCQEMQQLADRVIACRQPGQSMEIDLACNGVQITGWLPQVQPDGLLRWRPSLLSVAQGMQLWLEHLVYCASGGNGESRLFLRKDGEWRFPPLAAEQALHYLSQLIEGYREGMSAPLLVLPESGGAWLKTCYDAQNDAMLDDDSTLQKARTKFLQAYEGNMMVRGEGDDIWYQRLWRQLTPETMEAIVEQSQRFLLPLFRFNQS
T1 sequence (P08394 whole entry): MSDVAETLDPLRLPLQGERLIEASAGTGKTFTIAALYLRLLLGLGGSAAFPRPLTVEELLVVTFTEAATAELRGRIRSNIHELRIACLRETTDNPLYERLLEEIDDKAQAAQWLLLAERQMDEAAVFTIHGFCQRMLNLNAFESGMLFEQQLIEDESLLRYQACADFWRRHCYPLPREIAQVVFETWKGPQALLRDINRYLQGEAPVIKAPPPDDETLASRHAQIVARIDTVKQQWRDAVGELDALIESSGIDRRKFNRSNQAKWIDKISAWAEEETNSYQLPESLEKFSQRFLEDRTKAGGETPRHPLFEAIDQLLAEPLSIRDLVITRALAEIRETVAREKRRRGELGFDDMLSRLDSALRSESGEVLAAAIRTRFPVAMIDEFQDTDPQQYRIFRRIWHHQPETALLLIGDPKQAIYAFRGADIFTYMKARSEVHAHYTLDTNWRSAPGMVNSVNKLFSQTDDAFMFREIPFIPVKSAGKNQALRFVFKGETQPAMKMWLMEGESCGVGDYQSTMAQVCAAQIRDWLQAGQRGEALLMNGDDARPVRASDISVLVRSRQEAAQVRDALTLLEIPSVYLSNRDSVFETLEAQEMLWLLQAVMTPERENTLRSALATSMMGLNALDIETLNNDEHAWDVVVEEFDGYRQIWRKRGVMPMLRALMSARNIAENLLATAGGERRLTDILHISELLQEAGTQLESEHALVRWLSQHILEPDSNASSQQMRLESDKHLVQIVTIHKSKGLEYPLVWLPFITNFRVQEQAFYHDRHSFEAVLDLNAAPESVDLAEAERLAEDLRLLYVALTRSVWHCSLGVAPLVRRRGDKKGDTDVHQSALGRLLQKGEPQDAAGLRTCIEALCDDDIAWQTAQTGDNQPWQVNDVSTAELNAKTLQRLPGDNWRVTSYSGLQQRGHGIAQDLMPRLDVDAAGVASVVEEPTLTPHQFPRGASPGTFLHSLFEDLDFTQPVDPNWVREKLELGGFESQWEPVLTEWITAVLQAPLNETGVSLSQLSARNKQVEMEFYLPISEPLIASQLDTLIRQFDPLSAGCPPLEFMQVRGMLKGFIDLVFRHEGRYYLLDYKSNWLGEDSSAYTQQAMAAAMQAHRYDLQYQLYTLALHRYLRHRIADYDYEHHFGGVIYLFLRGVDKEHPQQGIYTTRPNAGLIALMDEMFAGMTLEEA

[3] = Counterscreen for AddAB inhibitors: absorbance-based bacterial cell-based high throughput dose response assay for inhibitors of bacterial viability. [Related pubchem assays (depositor defined):AID435030, AID449728, AID449731, AID488942, AID488955, AID488956]; format: functional

Tyrosyl-DNA phosphodiesterase 2, sequence (O95551 whole entry): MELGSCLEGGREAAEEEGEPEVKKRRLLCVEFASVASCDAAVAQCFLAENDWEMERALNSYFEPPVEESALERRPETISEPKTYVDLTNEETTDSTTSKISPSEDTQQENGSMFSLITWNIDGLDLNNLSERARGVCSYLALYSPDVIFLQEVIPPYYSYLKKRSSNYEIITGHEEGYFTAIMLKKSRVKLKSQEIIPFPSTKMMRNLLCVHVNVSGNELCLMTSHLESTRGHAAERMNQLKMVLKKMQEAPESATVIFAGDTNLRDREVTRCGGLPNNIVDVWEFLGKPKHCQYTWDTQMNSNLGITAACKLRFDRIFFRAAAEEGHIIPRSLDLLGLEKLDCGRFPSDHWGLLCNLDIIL

SMILES | IC50 [1] | EC50 [2] | IC50 (Exodeoxyribonuclease V) | IC50 [3]
CC(C)N(C(=O)Nc1ccc2nsnc2c1)C(C)C | 8.96 µM (active) | – | – | –
NS(=O)(=O)c1ccc(NC2=CC(=O)C(=O)c3ccccc32)cc1 | 5.59 µM (active) | – | – | –
CCC(=O)NC(c1ccccc1OC)c1ccc2cccnc2c1O (configuration not stated) | – | 951 nM (active) | > 119 µM (inactive) | > 119 µM (inactive)
O=C(N/N=C/c1ccc(O)cc1O)c1ccc(CN2C(=O)c3cccc4cccc2c34)cc1 | – | – | > 119 µM (inactive) | > 119 µM (inactive)
